Data published in patent publication US20230146455A1, “TREATMENT OF INFLAMMATORY DISEASES WITH PEPTIDES AND PHARMACEUTICAL COMPOSITIONS” (Yuyu Pharma, Inc., priority 2020, published 2023).
“And” between values parts separate entries of the source, which are not always exact repeats. Equal values may be shown once. Where a SMILES comes first, the peptide text is derived from it. [ ]: non-standard residue; d: D form. Hyp = O=C(O)[C@@H]1C[C@@H](O)CN1

What was measured:
IL-10 = assay: Example 9 Luminex, LPS hPBMCs: IL-10; type: cell-based, human; conditions: IL-10
Method: (§1) Treatment Human PBMCs were pretreated with YY-101, YDE-011 and YDE-043 or reference compound; Xiidra® at various concentration (ranging from 1 nM to 100 uM) for 2 h before stimulation. An equal volume of 0.5% DMSO was used as a vehicle control. Then, the cells were treated with LPS at 5 ug/ml. The supernatants from treated cells were harvested at 24 h and placed in a 96 well for Luminex cytokine & chemokine profiling using a Luminex 200 multiplex assay (Luminex; R&D system, USA).
(§2) The main study arm with triplicate wells per group in a 24-well plate: • 1. Blank • 2. PBMC: 0.5% DMSO • 3. PBMC+LPS (5 ug/ml) • 4. PBMC+YY-101 100 uM • 5. PBMC+YY-101 10 uM • 6. PBMC+YY-101 1 uM • 7. PBMC+YY-101 0.1 uM • 8. PBMC+YY-101 0.01 uM • 9. PBMC+LPS (5 ug/ml)+Xiidra®100 uM • 10. PBMC+LPS (5 ug/ml)+Xiidra® 10 uM • 11. PBMC+LPS (5 ug/ml)+Xiidra® 1 uM • 12. PBMC+LPS (5 ug/ml)+Xiidra®0.1 uM • 13. PBMC+LPS (5 ug/ml)+Xiidra®0.01 uM • 14. PBMC+LPS (5 ug/ml)+Xiidra®0.001 uM • 15. PBMC+LPS (5 ug/ml)+YY-101 100 uM • 16. PBMC+LPS (5 ug/ml)+YY-101 10 uM • 17. PBMC+LPS (5 ug/ml)+YY-101 1 uM • 18. PBMC+LPS (5 ug/ml)+YY-101 0.1 uM • 19. PBMC+LPS (5 ug/ml)+YY-101 0.01 uM • 20. PBMC+LPS (5 ug/ml)+YY-101 0.001 uM • 21. PBMC+LPS (5 ug/ml)+YDE-011 100 uM • 22. PBMC+LPS (5 ug/ml)+YDE-011 10 uM • 23. PBMC+LPS (5 ug/ml)+YDE-011 1 uM • 24. PBMC+LPS (5 ug/ml)+YDE-011 0.1 uM • 25. PBMC+LPS (5 ug/ml)+YDE-011 0.01 uM • 26. PBMC+LPS (5 ug/ml)+YDE-011 0.001 uM • 27. PBMC+LPS (5 ug/ml)+YDE-043 100 uM • 28. PBMC+LPS (5 ug/ml)+YDE-043 10 uM • 29. PBMC+LPS (5 ug/ml)+YDE-043 1 uM • 30. PBMC+LPS (5 ug/ml)+YDE-043 0.1 uM • 31. PBMC+LPS (5 ug/ml)+YDE-043 0.01 uM • 32. PBMC+LPS (5 ug/ml)+YDE-043 0.001 uM
(§3) Multiplex assay was used to measure 30 cytokines and chemokines. The 1:2, 1:10 and 1:200 diluted cell supernatant and serial dilution of the standard were dispensed into a 96 well plate at 50 ul/well. Then, the pre-mixed cocktail of antibody-coated magnetic beads was dispensed at 50 ul/well and incubated at room temperature for 2 h in a horizontal orbital microplate shaker at 800±500 rpm. The beads were washed using a magnetic device to prevent loss. The biotin-antibody was dispensed in 50 ul of each well and incubated at room temperature for 1 h in a shaker at 800±500 rpm. After washing, streptavidin-PE was added at 50 ul/well and incubated at room temperature for 30 min in a shaker under the same conditions. Finally, after washing, wash buffer (100 ul/well) was added to the plate and incubated in a shaker for 2 min. The Luminex™ 200 setting were set according to the manufacturer's protocol. The data was calculated with a standard five-parameter logistic nonlinear regression analysis of the data (xPonent software 4.2, USA). The levels of cytokine/chemokine are normalized to the live cell counts (1×10^5 cells/mL) and presented as concentrations per mL (pg/mL or ng/mL).

TIMP-1 = assay: Example 9 Luminex, LPS hPBMCs: TIMP-1; type: cell-based, human; conditions: PBMC + LPS(5 ug/ml)
Method: as §1, §2, §3

[1] = PBMC + LPS(5 ug/ml) + test article 0.001 uM, Mean
[2] = PBMC + LPS(5 ug/ml) + test article 0.001 uM, single replicates
[3] = PBMC + LPS(5 ug/ml) + test article 0.01 uM, Mean
[4] = PBMC + LPS(5 ug/ml) + test article 0.01 uM, single replicates
[5] = PBMC + LPS(5 ug/ml) + test article 0.1 uM, Mean
[6] = PBMC + LPS(5 ug/ml) + test article 0.1 uM, single replicates
[7] = PBMC + LPS(5 ug/ml) + test article 1 uM, Mean
[8] = PBMC + LPS(5 ug/ml) + test article 1 uM, single replicates
[9] = PBMC + LPS(5 ug/ml) + test article 10 uM, Mean
[10] = PBMC + LPS(5 ug/ml) + test article 10 uM, single replicates
[11] = PBMC + LPS(5 ug/ml) + test article 100 uM, Mean
[12] = PBMC + LPS(5 ug/ml) + test article 100 uM, single replicates
[13] = test article 0.001 uM, single replicates
[14] = test article 0.01 uM, single replicates
[15] = test article 0.1 uM, single replicates
[16] = test article 1 uM, single replicates
[17] = test article 10 uM, single replicates
[18] = test article 100 uM, single replicates

## CC(C)C[C@H](NC(=O)[C@H](CCC(N)=O)NC(=O)CNC(=O)[C@@H]1C[C@@H](O)CN1)C(=O)NCC(=O)O [YDE-043] (H-[Hyp]GQLG-OH; N-terminus and C-terminus assumed)
IL-10; [1]
  Concentration: 305.6 pg/mL
  conc/live cell (pg/10^5): 62.5 pg/10^5
IL-10; [2]
  Concentration: 335.7 pg/mL and 298.3 pg/mL and 282.9 pg/mL
  conc/live cell (pg/10^5): 76.3 pg/10^5 and 49.7 pg/10^5 and 61.5 pg/10^5
IL-10; [3]
  Concentration: 344.9 pg/mL
  conc/live cell (pg/10^5): 65.7 pg/10^5
IL-10; [4]
  Concentration: 344.9 pg/mL and 362.6 pg/mL and 327.1 pg/mL
  conc/live cell (pg/10^5): 76.7 pg/10^5 and 54.9 pg/10^5 and 65.4 pg/10^5
IL-10; [5]
  Concentration: 322.4 pg/mL
  conc/live cell (pg/10^5): 59.9 pg/10^5
IL-10; [6]
  Concentration: 330.0 pg/mL and 312.8 pg/mL and 324.3 pg/mL
  conc/live cell (pg/10^5): 66.0 pg/10^5 and 55.9 pg/10^5 and 57.9 pg/10^5
IL-10; [7]
  Concentration: 327.6 pg/mL
  conc/live cell (pg/10^5): 62.1 pg/10^5
IL-10; [8]
  Concentration: 328.6 pg/mL and 312.8 pg/mL and 341.4 pg/mL
  conc/live cell (pg/10^5): 56.7 pg/10^5 and 65.2 pg/10^5 and 64.4 pg/10^5
IL-10; [9]
  Concentration: 297.7 pg/mL
  conc/live cell (pg/10^5): 55.2 pg/10^5
IL-10; [10]
  Concentration: 318.5 pg/mL and 277.0 pg/mL and 297.5 pg/mL
  conc/live cell (pg/10^5): 61.3 pg/10^5 and 51.3 pg/10^5 and 53.1 pg/10^5
IL-10; [11]
  Concentration: 109.4 pg/mL
  conc/live cell (pg/10^5): 17.4 pg/10^5
IL-10; [12]
  Concentration: 106.7 pg/mL and 112.1 pg/mL
  conc/live cell (pg/10^5): 17.2 pg/10^5 and 17.5 pg/10^5
TIMP-1; test article 0.001 uM, Mean
  TIMP-1 Concentration: 2001.5 pg/mL
  TIMP-1 MFI: 1096.8
  TIMP-1 conc/live cell: 406.7 pg/10^5
TIMP-1; [13]
  TIMP-1 Concentration: 1887.3 pg/mL and 2046.6 pg/mL and 2070.5 pg/mL
  TIMP-1 MFI: 1014.0 and 1129.5 and 1147.0
  TIMP-1 conc/live cell: 428.9 pg/10^5 and 341.1 pg/10^5 and 450.1 pg/10^5
TIMP-1; test article 0.01 uM, Mean
  TIMP-1 Concentration: 1986.7 pg/mL
  TIMP-1 MFI: 1085.8
  TIMP-1 conc/live cell: 380.0 pg/10^5
TIMP-1; [14]
  TIMP-1 Concentration: 2007.5 pg/mL and 1991.7 pg/mL and 1960.7 pg/mL
  TIMP-1 MFI: 1101.0 and 1089.5 and 1067.0
  TIMP-1 conc/live cell: 446.1 pg/10^5 and 301.8 pg/10^5 and 392.1 pg/10^5
TIMP-1; test article 0.1 uM, Mean
  TIMP-1 Concentration: 1829.5 pg/mL
  TIMP-1 MFI: 972.8
  TIMP-1 conc/live cell: 339.9 pg/10^5
TIMP-1; [15]
  TIMP-1 Concentration: 1850.4 pg/mL and 1718.3 pg/mL and 1919.9 pg/mL
  TIMP-1 MFI: 987.5 and 893.5 and 1037.5
  TIMP-1 conc/live cell: 370.1 pg/10^5 and 306.8 pg/10^5 and 342.8 pg/10^5
TIMP-1; test article 1 uM, Mean
  TIMP-1 Concentration: 1838.3 pg/mL
  TIMP-1 MFI: 979.0
  TIMP-1 conc/live cell: 348.3 pg/10^5
TIMP-1; [16]
  TIMP-1 Concentration: 1928.2 pg/mL and 1809.9 pg/mL and 1776.9 pg/mL
  TIMP-1 MFI: 1043.5 and 958.5 and 935.0
  TIMP-1 conc/live cell: 332.5 pg/10^5 and 377.1 pg/10^5 and 335.3 pg/10^5
TIMP-1; test article 10 uM, Mean
  TIMP-1 Concentration: 1844.9 pg/mL
  TIMP-1 MFI: 983.7
  TIMP-1 conc/live cell: 342.1 pg/10^5
TIMP-1; [17]
  TIMP-1 Concentration: 1853.9 pg/mL and 1912.3 pg/mL and 1768.4 pg/mL
  TIMP-1 MFI: 990.0 and 1032.0 and 929.0
  TIMP-1 conc/live cell: 356.5 pg/10^5 and 354.1 pg/10^5 and 315.8 pg/10^5
TIMP-1; test article 100 uM, Mean
  TIMP-1 Concentration: 2156.3 pg/mL
  TIMP-1 MFI: 1210.3
  TIMP-1 conc/live cell: 342.6 pg/10^5
TIMP-1; [18]
  TIMP-1 Concentration: 2247.5 pg/mL and 2065.1 pg/mL
  TIMP-1 MFI: 1277.5 and 1143.0
  TIMP-1 conc/live cell: 362.5 pg/10^5 and 322.7 pg/10^5
